Bridges are numbered along the chain shown (N, C = ends). Where no end group is shown, it is not given here. [ ]: non-standard residue; d: D form. The star is where a group is joined. 1Nal = N[C@@H](Cc1cccc2ccccc12)C(=O)O; Acm = CC(=O)NC*
Experiments:
[1] = tested on: BKS db/db mice; test: T2D-induced liver damage in BKS db/db mice (leptin receptor deficiency); assay type: in vivo; settings: Losartan alone, 25 µg/g in drinking water, 7 weeks
Method: Leptin receptor deficiency in diabetes-susceptible strain BKS db/db: Homozygous C57BLKS (BKS) inbred db/db mice (16-weeks old males; Envigo) were randomized to receive in drinking water an angiotensin receptor blocker (Losartan 25 µg/g body weight) or vehicle as tap water (n=25). In addition, two groups of 8 losartan-treated mice were randomized to receive S1 peptide (10 µg/g body weight) or JAK1/2 inhibitor (Baricitinib 3 µg/g body weight) via intraperitoneal injection 3 days per week for 7 weeks. All groups were monitored during 7 weeks of treatment. Heterozygous littermates (db/m; n=10) were used as non-diabetic, non-obese control group.
Mice were housed in ventilated cages (2-4 mice per cage) with usual bedding material and environmental enrichment in a conventional temperature-controlled room (20-22°C) with 12 h light/dark cycle and free access to water and food. Blood glucose (glucometer; NovaPro, Menarini Diagnostics) and body weight levels were monitored once weekly during the follow-up period. […]
At the end of the studies, serum levels of glucose, triglycerides (TG), total cholesterol, high-density lipoprotein cholesterol (HDL), low-density lipoprotein cholesterol (LDL), alanine aminotransferase (ALT or GPT), aspartate aminotransferase (AST), alkaline phosphatase (ALP) and albumin were determined by automated procedures (Roche Cobas autoanalyzer). […]

[2] = tested on: mouse hepatocyte cell line; test: In vitro NAFLD model: hepatocytes exposed to palmitic acid (Oil red O staining, real-time PCR); assay type: cell-based; settings: induced by palmitic acid 400 µM, 6 hours
Method: Immortalized mouse hepatocyte cell line (kindly provided by Dr. Valverde, IIBm Alberto Sols, Madrid) were cultured in Dulbecco's Modified Eagle Medium (DMEM; D6546, Sigma-Aldrich) containing 10% FBS, 100 U/mL penicillin, 100 µg/mL streptomycin and 2 mM L-glutamine (Sigma-Aldrich) and used between 2nd-8th passages. Cells were incubated for 24 hours in medium with 0.5% FBS, pre-treated for 90 min with optimal doses of peptides (59 µM S1 and 25 µM liPS5) and then stimulated for additional 2-16 h with palmitic acid (P-0500, Sigma-Aldrich; stock solution diluted in fatty acid-free BSA to 5 mM) at a final concentration of 400 µM. Cell viability was confirmed by the 3-(4,5-dimethylthiazol-2-yl)-2,5-diphenyltetrazolium bromide tetrazolium (MTT) assay. Lipid accumulation in hepatocytes was determined by Oil red O staining.
(§1) Total RNA from mouse liver and hepatocytes was extracted using TRI Reagent (Molecular Research Center). Complementary DNA was produced via reverse transcription using High Capacity cDNA Reverse Transcription Kit (Applied Biosystems). The gene expression of mouse genes was determined in duplicate by quantitative real-time PCR using predesigned TaqMan gene expression assays (Applied Biosystems) or Premix ExTaq (Takara). The results for each sample were normalized to the 18S rRNA housekeeping expression, and data expressed as fold increases versus chow diet (in vivo studies) or basal conditions (in vitro studies).

[3] = tested on: ApoE-/- mice fed with HFD; test: NAFLD induced by high-fat diet (HFD) in ApoE-/- mice; assay type: in vivo; settings: 8 weeks of treatment
Method: In the second model, apolipoprotein E deficient mice (ApoE-/-, males, 10-12 weeks old) were administered high-fat diet (HFD, TD.88137, Envigo) for 8 weeks and treated with vehicle (n=8) or SOCS1-derived peptides (S1, n=6; liPS5, n=6; cPS5, n=6; cPS5Nal, n=6) at the dose of 4µg/g (in 200 µL) via intraperitoneal injection 3 days per week. A group of ApoE-/- mice under standard diet (Chow, n=6) was included as control.
Mice were housed in ventilated cages (2-4 mice per cage) with usual bedding material and environmental enrichment in a conventional temperature-controlled room (20-22°C) with 12 h light/dark cycle and free access to water and food. Blood glucose (glucometer; NovaPro, Menarini Diagnostics) and body weight levels were monitored once weekly during the follow-up period. At the end of the intervention studies, mice were anaesthetized (ketamine 100 mg/kg and xylazine 10 mg/kg) and euthanized, and blood and tissue samples were collected.
Hepatic lipids were extracted as previously described. Commercial colorimetric kits were used to measure concentrations of total cholesterol (STA-384, Cell Biolabs) and TG (11528, Biosystems), and values were normalized by tissue weight and mg of protein (BCA assay), respectively.
At the time of harvest, liver samples were fixed in 10% buffered formalin, processed for paraffin-embedding and cut (3-4 µm) or embedded in OCT compound and cryosectioned into 7 µm slices. Deparaffinized sections were stained with hematoxylin/eosin and Masson's trichrome to evaluate the histological NAFLD activity score (NAS) considering steatosis, lobular inflammation, ballooning and fibrosis, as previously described or were stained with picrosirious red to assess collagen deposition and fibrotic areas. Periodic Acid Schiff staining was performed for glycogen deposition assessment. Cryosections were stained with Oil red O/ hematoxylin to detect lipid accumulation.
For immunohistochemistry, liver sections were deparaffinized and […] through graded xylene and ethanol. After antigen retrieval (0.01 M citrate buffer pH 6 for 20 min) and blockade of endogenous peroxidase (3% H2O2 in methanol for 30 min) and nonspecific binding (8% host serum for 30 min), slides were incubated overnight at 4°C with primary antibodies against phosphorylated STAT1 (P-STAT1, Tyr701; Thermo Fisher Scientific Cat# 44-376G, RRID:AB_2533642), P-STAT3 (Ser727, Cell Signalling Technology Cat# 9134, RRID:AB_331589), P-nuclear factor erythroid 2-related factor 2 (NRF2, Ser40; Abcam Cat# ab76026, RRID:AB_1524049) and F4/80 monocytes/macrophages (Bio-Rad Cat# MCA497R, RRID:AB_323279). After rinsing in PBS, samples were incubated with respective secondary antibodies conjugated with either horseradish peroxidase or biotin (followed by avidin-biotin complex reagent). Immunoreactive cells were then visualized by the addition of peroxidase substrates (3, 3-diaminobenzidine or 3-amino-9-ethylcarbazole; DAKO) and counterstained with hematoxylin.
All the histological evaluations were conducted in a blinded fashion. Positive staining was quantified in at least 2 sections per mice using Image-Pro Plus software (Media Cybernetics) and expressed as percentage or number of positive cells per area.
as §1

[4] = 4µg/g intraperitoneal 3 days per week, vs vehicle

| Compound | hepatoprotective effect [1] | expression of inflammatory gene CCL2 (real-time PCR) [2] | expression of inflammatory gene IL-6 (real-time PCR) [2] | expression of scavenger receptor CD36 (real-time PCR) [2] | gene expression of CCL5 in mouse liver [3] | gene expression of CCl2 in mouse liver [3] | gene expression of CXCL10 in mouse liver [3] | gene expression of IL-6 in mouse liver [3] | gene expression of TNFα in mouse liver [3] | gene expression of scavenger receptor CD36 in mouse liver [3] | ballooning (liver sections) [3, 4] | hepatic steatosis (liver sections, hematoxylin/eosin, Oil red O) [3, 4] | inflammation (liver sections, F4/80) [3, 4] |
| --- | --- | --- | --- | --- | --- | --- | --- | --- | --- | --- | --- | --- | --- |
| CCCCc1nc(Cl)c(CO)n1Cc1ccc(-c2ccccc2-c2nn[nH]n2)cc1 [Losartan] | did not produce an hepatoprotective effect | – | – | – | – | – | – | – | – | – | – | – | – |
| DTC(Acm)RQT(Nal1)RKH (lactam bridge D1-K9) (DTC(Acm)RQT[1Nal]RKH; lactam 1-9) [cPS5Nal, cyclic PS5 with additional non-natural residue 1-naphthylalanine] | – | downregulated | downregulated | downregulated | effectively prevented | effectively prevented | effectively prevented | effectively prevented | effectively prevented | effectively prevented | marked decrease | marked decrease | marked decrease |
